In ChEMBL document CHEMBL2074465, “Nonsteroidal anti-inflammatory drugs efficiently reduce the transport and cytotoxicity of adefovir mediated by the human renal organic anion transporter 1” (J Pharmacol Exp Ther, 2000):

Target: T1, Solute carrier family 22 member 6 (Homo sapiens, UniProt Q4U2R8)
T1 sequence (Q4U2R8 whole entry): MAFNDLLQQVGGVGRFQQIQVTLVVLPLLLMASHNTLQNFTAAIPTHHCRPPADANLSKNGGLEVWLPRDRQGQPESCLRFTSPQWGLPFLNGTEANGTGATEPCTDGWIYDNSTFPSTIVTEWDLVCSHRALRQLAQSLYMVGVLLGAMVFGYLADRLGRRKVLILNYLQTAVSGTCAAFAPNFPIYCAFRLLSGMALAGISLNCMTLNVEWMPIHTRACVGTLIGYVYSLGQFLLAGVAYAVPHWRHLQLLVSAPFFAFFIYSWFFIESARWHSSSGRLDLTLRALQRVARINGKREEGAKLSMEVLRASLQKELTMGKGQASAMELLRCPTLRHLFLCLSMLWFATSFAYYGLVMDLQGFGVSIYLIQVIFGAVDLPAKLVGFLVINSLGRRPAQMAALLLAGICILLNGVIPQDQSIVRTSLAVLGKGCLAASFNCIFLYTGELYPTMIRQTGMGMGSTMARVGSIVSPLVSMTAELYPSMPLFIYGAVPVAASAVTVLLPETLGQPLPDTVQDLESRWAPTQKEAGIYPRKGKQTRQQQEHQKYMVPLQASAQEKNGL
Assay: TP_TRANSPORTER: uptake in OAT1-expressing CHO cells
Assay type: functional, cell-based
Details: hamster

`CC(C(=O)O)c1cccc(C(=O)c2ccccc2)c1` (stereo unspecified) [KETOPROFEN] was tested, and the Activity was “is not a substrate [-]”.
